From article PMC10041525, “New Dual Inhibitors of Bacterial Topoisomerases with Broad-Spectrum Antibacterial Activity and In Vivo Efficacy against Vancomycin-Intermediate Staphylococcus aureus” (Journal of Medicinal Chemistry, 2023)
Converted amounts (≈) assume the structure as drawn. Where two headings read alike, the source gives them in different places.

Assays:
Assay type in all cases: cell-based
[1] = system: 100 A. baumannii strains (50 MDR, 50 non-MDR); test: MIC broth microdilution at IHMA Europe, panel of 100 strains; conditions: for MIC / MIC50 / MIC90: Acinetobacter baumannii; for MIC50: read-out: MIC 50; for MIC90: read-out: MIC 90
P. aeruginosa ATCC 27853 = test: IHMA QC MIC; conditions: for MIC: Pseudomonas aeruginosa
E. faecium (n = 13) = test: MIC broth microdilution at IHMA Europe; conditions: for MIC: Enterococcus faecium, read-out: MIC

In the case of `C[C@@H](O)[C@H]1C(=O)N2C(C(=O)O)=C(SCCNC=N)C[C@H]12` [Imipenem, imipenem], the MIC ([1]; A. baumannii IHMA 2051503, Serbia 2019, MDR, read-out: MIC) was greater than 16 µg/mL, the MIC ([1]; A. baumannii IHMA 2058329, Slovenia 2019, Non-MDR, read-out: MIC) was no more than 0.25 µg/mL and the MIC ([1]; A. baumannii IHMA 2065587, France 2019, Non-MDR, read-out: MIC) was no more than 0.25 µg/mL. The MIC ([1]; A. baumannii IHMA 2099294, United Kingdom 2019, Non-MDR, read-out: MIC) was no more than 0.25 µg/mL, the MIC ([1]; A. baumannii IHMA 2129256, Qatar 2019, Non-MDR, read-out: MIC) was no more than 0.25 µg/mL and the MIC ([1]; A. baumannii IHMA 2154584, Israel 2020, MDR, read-out: MIC) was 16 µg/mL (≈ 53.4 µM). The MIC ([1]; A. baumannii IHMA 2155340, Kenya 2020, MDR, read-out: MIC) was 16 µg/mL (≈ 53.4 µM), the MIC ([1]; A. baumannii IHMA 2156634, Turkey 2020, MDR, read-out: MIC) was greater than 16 µg/mL and the MIC ([1]; A. baumannii IHMA 2156709, Turkey 2020, MDR, read-out: MIC) was greater than 16 µg/mL. It also gave an MIC ([1]; A. baumannii IHMA 2157614, Australia 2020, Non-MDR, read-out: MIC) of no more than 0.25 µg/mL, an MIC ([1]; A. baumannii IHMA 2177232, Lithuania 2020, MDR, read-out: MIC) greater than 16 µg/mL and an MIC ([1]; A. baumannii IHMA 2177489, Lithuania 2020, MDR, read-out: MIC) greater than 16 µg/mL. It also gave an MIC ([1]; A. baumannii IHMA 2178574, Ukraine 2020, Non-MDR, read-out: MIC) of no more than 0.25 µg/mL, an MIC ([1]; A. baumannii IHMA 2180134, Malaysia 2020, Non-MDR, read-out: MIC) of no more than 0.25 µg/mL and an MIC ([1]; A. baumannii IHMA 2180142, Malaysia 2020, MDR, read-out: MIC) of 16 µg/mL (≈ 53.4 µM). For the same compound, the MIC ([1]; A. baumannii IHMA 2181370, Morocco 2020, MDR, read-out: MIC) was greater than 16 µg/mL, the MIC ([1]; A. baumannii IHMA 2183729, Argentina 2020, MDR, read-out: MIC) was 16 µg/mL (≈ 53.4 µM) and the MIC ([1]; A. baumannii IHMA 2183849, Argentina 2020, Non-MDR, read-out: MIC) was no more than 0.25 µg/mL. The MIC ([1]; A. baumannii IHMA 2184382, Japan 2020, Non-MDR, read-out: MIC) was no more than 0.25 µg/mL, the MIC ([1]; A. baumannii IHMA 2193375, Venezuela 2020, MDR, read-out: MIC) was greater than 16 µg/mL and the MIC ([1]; A. baumannii IHMA 2193485, Venezuela 2020, Non-MDR, read-out: MIC) was no more than 0.25 µg/mL. The MIC ([1]; A. baumannii IHMA 2193607, Venezuela 2020, MDR, read-out: MIC) was greater than 16 µg/mL, the MIC ([1]; A. baumannii IHMA 2195460, Italy 2020, MDR, read-out: MIC) was greater than 16 µg/mL and the MIC ([1]; A. baumannii IHMA 2196914, South Africa 2020, MDR, read-out: MIC) was greater than 16 µg/mL. The MIC ([1]; A. baumannii IHMA 2196959, South Africa 2020, MDR, read-out: MIC) was greater than 16 µg/mL, the MIC ([1]; A. baumannii IHMA 2203763, Spain 2020, MDR, read-out: MIC) was greater than 16 µg/mL and the MIC ([1]; A. baumannii IHMA 2205144, Korea, South 2020, MDR, read-out: MIC) was greater than 16 µg/mL. It also gave an MIC ([1]; A. baumannii IHMA 2206459, Taiwan 2020, MDR, read-out: MIC) greater than 16 µg/mL, an MIC ([1]; A. baumannii IHMA 2206507, Taiwan 2020, Non-MDR, read-out: MIC) of no more than 0.25 µg/mL and an MIC ([1]; A. baumannii IHMA 2212575, Hungary 2020, Non-MDR, read-out: MIC) of no more than 0.25 µg/mL. The MIC ([1]; A. baumannii IHMA 2215307, Hong Kong 2020, Non-MDR, read-out: MIC) was no more than 0.25 µg/mL, the MIC ([1]; A. baumannii IHMA 2216586, Taiwan 2020, MDR, read-out: MIC) was greater than 16 µg/mL and the MIC ([1]; A. baumannii IHMA 2223200, Colombia 2020, Non-MDR, read-out: MIC) was no more than 0.25 µg/mL. It also gave an MIC ([1]; A. baumannii IHMA 2224017, Panama 2020, MDR, read-out: MIC) greater than 16 µg/mL, an MIC ([1]; A. baumannii IHMA 2224303, Panama 2020, Non-MDR, read-out: MIC) of no more than 0.25 µg/mL and an MIC ([1]; A. baumannii IHMA 2231797, Greece 2020, MDR, read-out: MIC) greater than 16 µg/mL. It also gave an MIC ([1]; A. baumannii IHMA 2233099, Guatemala 2020, MDR, read-out: MIC) greater than 16 µg/mL, an MIC ([1]; A. baumannii IHMA 2233430, Kazakhstan 2020, MDR, read-out: MIC) greater than 16 µg/mL and an MIC ([1]; A. baumannii IHMA 2233548, Kazakhstan 2020, Non-MDR, read-out: MIC) of no more than 0.25 µg/mL. The MIC ([1]; A. baumannii IHMA 2238964, Thailand 2020, MDR, read-out: MIC) was greater than 16 µg/mL, the MIC ([1]; A. baumannii IHMA 2239052, Thailand 2020, Non-MDR, read-out: MIC) was no more than 0.25 µg/mL and the MIC ([1]; A. baumannii IHMA 2261047, Belgium 2020, MDR, read-out: MIC) was greater than 16 µg/mL. For the same compound, the MIC ([1]; A. baumannii IHMA 2261633, Canada 2020, Non-MDR, read-out: MIC) was no more than 0.25 µg/mL, the MIC ([1]; A. baumannii IHMA 2274234, South Africa 2020, MDR, read-out: MIC) was greater than 16 µg/mL and the MIC ([1]; A. baumannii IHMA 2274364, South Africa 2020, MDR, read-out: MIC) was greater than 16 µg/mL. It also gave an MIC ([1]; A. baumannii IHMA 2275237, Chile 2020, Non-MDR, read-out: MIC) of no more than 0.25 µg/mL, an MIC ([1]; A. baumannii IHMA 2275751, Jordan 2020, MDR, read-out: MIC) greater than 16 µg/mL and an MIC ([1]; A. baumannii IHMA 2316205, United States 2020, MDR, read-out: MIC) greater than 16 µg/mL. For the same compound, the MIC ([1]; MDR n = 50, read-out: MAX (maximum MIC; all strains inhibited)) was greater than 16 µg/mL, the MIC50 ([1]; MDR n = 50) was greater than 16 µg/mL and the MIC90 ([1]; MDR n = 50) was greater than 16 µg/mL. For the same compound, the MIC ([1]; MDR n = 50, read-out: MIN (minimum MIC)) was 16 µg/mL (≈ 53.4 µM), the MIC ([1]; all isolates n = 100, read-out: MAX (maximum MIC; all strains inhibited)) was greater than 16 µg/mL and the MIC50 ([1]; all isolates n = 100) was 0.5 µg/mL (≈ 1.67 µM). It also gave an MIC90 ([1]; all isolates n = 100) greater than 16 µg/mL, an MIC ([1]; all isolates n = 100, read-out: MIN (minimum MIC)) of no more than 0.25 µg/mL and an MIC ([1]; non-MDR n = 50, read-out: MAX (maximum MIC)) of 0.5 µg/mL (≈ 1.67 µM). The MIC50 ([1]; non-MDR n = 50) was no more than 0.25 µg/mL, the MIC90 ([1]; non-MDR n = 50) was no more than 0.25 µg/mL and the MIC ([1]; non-MDR n = 50, read-out: MIN (minimum MIC)) was no more than 0.25 µg/mL. The “Percentage I” value ([1]; MDR n = 50) was 0%, the “Percentage R” value ([1]; MDR n = 50) was 100% and the “Percentage S” value ([1]; MDR n = 50) was 0%. For the same compound, the “Percentage I” value ([1]; all n = 100, CLSI breakpoints) was 0%, the “Percentage R” value ([1]; all n = 100, CLSI breakpoints) was 50% and the “Percentage S” value ([1]; all n = 100, CLSI breakpoints) was 50%. The “Percentage I” value ([1]; non-MDR n = 50) was 0%, the “Percentage R” value ([1]; non-MDR n = 50) was 0% and the “Percentage S” value ([1]; non-MDR n = 50) was 100%. For the same compound, the “MIC (QC, repeated tests)” value (P. aeruginosa ATCC 27853) was 1 µg/mL (≈ 3.34 µM), the MIC (P. aeruginosa ATCC 27853; ATCC27853, QC strain P. aeruginosa ATCC 27853, test date 2021-11-11, read-out: MIC) was 2 µg/mL (≈ 6.68 µM) and the MIC (P. aeruginosa ATCC 27853; ATCC27853, QC strain P. aeruginosa ATCC 27853, test date 2021-11-26, read-out: MIC) was 2 µg/mL (≈ 6.68 µM). For the same compound, the MIC (P. aeruginosa ATCC 27853; ATCC27853, read-out: MIC (QC, repeated tests)) was 2 µg/mL (≈ 6.68 µM), the MIC (E. faecium (n = 13); E. faecium IHMA N° 1764866) was greater than 32 µg/mL and the MIC (E. faecium (n = 13); E. faecium IHMA N° 1765436) was 16 µg/mL (≈ 53.4 µM). For the same compound, the MIC (E. faecium (n = 13); E. faecium IHMA N° 1765746) was greater than 32 µg/mL, the MIC (E. faecium (n = 13); E. faecium IHMA N° 1893573) was greater than 32 µg/mL and the MIC (E. faecium (n = 13); E. faecium IHMA N° 1893846) was greater than 32 µg/mL. It also gave an MIC (E. faecium (n = 13); E. faecium IHMA N° 1893942) greater than 32 µg/mL, an MIC (E. faecium (n = 13); E. faecium IHMA N° 1894055) greater than 32 µg/mL and an MIC (E. faecium (n = 13); E. faecium IHMA N° 1897027) greater than 32 µg/mL. The MIC (E. faecium (n = 13); E. faecium IHMA N° 1897101) was greater than 32 µg/mL, the MIC (E. faecium (n = 13); E. faecium IHMA N° 1904592) was greater than 32 µg/mL and the MIC (E. faecium (n = 13); E. faecium IHMA N° 2075051) was greater than 32 µg/mL. The MIC (E. faecium (n = 13); E. faecium IHMA N° 2077718) was greater than 32 µg/mL, the MIC (E. faecium (n = 13); E. faecium IHMA N° 2083787) was greater than 32 µg/mL and the “Cumulative % at MIC” value (E. faecium (n = 13); MIC […] µg/mL) was 7.7%. For the same compound, the “No. of isolates at MIC” value (E. faecium (n = 13); MIC […] µg/mL) was 1, the “Cumulative % at MIC” value (E. faecium (n = 13); MIC >32 µg/mL) was 100.0% and the “No. of isolates at MIC” value (E. faecium (n = 13); MIC >32 µg/mL) was 12.
